Earlier results on 1 compound are cited in patent EP2654723B1, “Solid pharmaceutical dosage forms comprising tadalafil and methods of preparation thereof” (Zaklady Farmaceutyczne Polpharma SA, priority 2010, dated 2012).

The conditions of series [1]: at 37°C.

On to `CN1CC(=O)N2[C@H](c3ccc4c(c3)OCO4)c3[nH]c4ccccc4c3C[C@@H]2C1=O` [Tadalafil, (6R-trans)-6-(1,3-benzodioxol-5-yl)-2,3,6,7,12,12a-hexahydro-2-methyl-pyrazino [1', 2':1,6] pyrido[3,4-b]indole-1,4-dione], for which the permeability entry is reported as “low permeability”. In addition, the BCS class entry (because of low solubility and low permeability) is “BCS class IV”. Further, in series [1], the experimental water solubility entry is recorded as “about 2 µg/mL”.
